Reference: ChEMBL document CHEMBL3596135, “A critical evaluation of pyrrolo[2,3-d]pyrimidine-4-amines as Plasmodium falciparum apical membrane antigen 1 (AMA1) inhibitors” (Medchemcomm, 2014)
Structures can show the parent of a compound that is named as a salt. Active and inactive are the calls of the source. The calls are words filed in the database; no cut-off is given here.

Legend:
[1] = Self-aggregating activity of the compound in phosphate buffer at pH 7.4 at 5 to 80 uM by 1D 1H-NMR spectroscopic analysis in absence of Tween 20; format: physicochemical; conditions: pH 7.4, 80 µM
[2] = Solubility of the compound in phosphate buffer at pH 7.4; format: physicochemical
[3] = Self-aggregating activity of the compound in phosphate buffer at pH 7.4 at 80 uM by 1D 1H-NMR spectroscopic analysis in presence of Tween 20; format: physicochemical; conditions: pH 7.4, 80 µM
[4] = target: T1, Apical membrane antigen 1 (Plasmodium falciparum (isolate 3D7), UniProt Q7KQK5); assay: Binding affinity to Plasmodium falciparum 3D7 AMA1 (104 to 442) by SPR analysis
T1 sequence (Q7KQK5 whole entry): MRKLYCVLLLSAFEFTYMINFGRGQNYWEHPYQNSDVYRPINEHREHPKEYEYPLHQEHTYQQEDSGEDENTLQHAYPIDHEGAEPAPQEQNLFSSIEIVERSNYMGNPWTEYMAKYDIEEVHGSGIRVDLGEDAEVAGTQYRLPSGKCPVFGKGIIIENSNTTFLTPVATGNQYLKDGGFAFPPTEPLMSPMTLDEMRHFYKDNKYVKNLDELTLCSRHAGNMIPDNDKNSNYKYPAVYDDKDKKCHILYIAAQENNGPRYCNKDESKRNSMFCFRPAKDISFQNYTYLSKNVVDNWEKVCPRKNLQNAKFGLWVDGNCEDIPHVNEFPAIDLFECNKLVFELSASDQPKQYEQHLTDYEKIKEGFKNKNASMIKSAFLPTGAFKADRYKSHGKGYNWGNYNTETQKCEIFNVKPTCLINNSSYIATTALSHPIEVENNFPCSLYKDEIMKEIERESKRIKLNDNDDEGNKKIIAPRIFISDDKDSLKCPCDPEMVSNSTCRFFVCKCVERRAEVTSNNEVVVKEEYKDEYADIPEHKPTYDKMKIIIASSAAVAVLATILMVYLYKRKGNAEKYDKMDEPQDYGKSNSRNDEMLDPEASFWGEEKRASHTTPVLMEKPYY

Plasmodium falciparum [5] = assay: Antimalarial activity against synchronised early trophozoite stage of Plasmodium falciparum 3D7 assessed as parasite growth inhibition measured after two invasion cycles by flow cytometric analysis; format: functional, organism-based
Plasmodium falciparum [6] = assay: Antimalarial activity against Plasmodium falciparum FVO schizont infected in RBC assessed as inhibition of merozoite invasion after 3 to 4 hrs by flow cytometric analysis; format: functional, organism-based
[7] = target: T2, Apical membrane antigen 1 (Plasmodium falciparum (isolate 3D7)) (UniProt Q7KQK5); assay: Competitive binding affinity to Plasmodium falciparum 3D7 AMA1 (104 to 442) at 80 uM after 200 milisecs by CPMG binding assay in presence of R1 peptide and Tween 20
T2 sequence (whole entry): T1 sequence (Q7KQK5 whole entry)

[8] = target: T2, Apical membrane antigen 1 (Plasmodium falciparum (isolate 3D7)); assay: Competitive binding affinity to Plasmodium falciparum 3D7 AMA1 (104 to 442) at 80 uM after 200 milisecs by CPMG binding assay in presence of RON2 peptide and absence of detergent
[9] = target: T2, Apical membrane antigen 1 (Plasmodium falciparum (isolate 3D7)); assay: Competitive binding affinity to Plasmodium falciparum 3D7 AMA1 (104 to 442) at 80 uM after 200 milisecs by CPMG binding assay in presence of RON2 peptide and Tween 20
[10] = target: T2, Apical membrane antigen 1 (Plasmodium falciparum (isolate 3D7)); assay: Competitive binding affinity to Plasmodium falciparum 3D7 AMA1 (104 to 442) at 80 uM after 200 milisecs by CPMG binding assay in presence of R1 peptide and absence of detergent
[11] = target: T2, Apical membrane antigen 1 (Plasmodium falciparum (isolate 3D7)); assay: Binding affinity to Plasmodium falciparum 3D7 AMA1 (104 to 442) up to 200 uM by SPR analysis
[12] = target: T1, Apical membrane antigen 1; assay: Binding affinity to recombinant His-tagged Plasmodium falciparum 3D7 AMA1 assessed as inhibition of interaction with biotin-tagged RON2 peptide after 30 mins by AlphaScreen assay

Row | Structure (SMILES) | Activity [1] | solubility [2] | Activity [3] | Kd [4] [µM] | growth inhibition (GI) (Plasmodium falciparum [5]) | other results
1 | COc1ccccc1-c1cn(C)c2ncnc(N)c12 | Not Active | soluble | Not Active | ≥ 1000 | Active | –
2 | COc1ccc(-c2cn(C3CCCC3)c3ncnc(N)c23)cc1 | Not Active | soluble | Not Active | ≥ 1000 | – | IC50 (Plasmodium falciparum [6]): 9.8 µM; Activity [7]: Active; Activity [8]: Active; IC50 (Plasmodium falciparum [5]): 63 µM; Activity [9]: Active; Activity [10]: Active
3 | Cn1cc(-c2ccc(N)cc2)c2c(N)ncnc21 | Not Active | soluble | Not Active | ≥ 1000 | Active | –
4 | Cn1cc(-c2ccc(F)cc2)c2c(N)ncnc21 | Not Active | soluble | Not Active | ≥ 1000 | Active | –
5 | COc1cccc(-c2cn(C)c3ncnc(N)c23)c1 | Not Active | soluble | Not Active | ≥ 1000 | Active | –
6 | Nc1ncnc2c1c(-c1ccc(Oc3ccccc3)cc1)cn2C1CCCC1 | Active | soluble | Not Active | ≥ 1000 | – | IC50 (Plasmodium falciparum [6]): 30 µM; IC50 (Plasmodium falciparum [5]): > 1000 µM
7 | Cn1cc(-c2cccc(N)c2)c2c(N)ncnc21 | Not Active | soluble | Not Active | ≥ 1000 | Active | –
8 | Cn1cc(-c2cccc(F)c2)c2c(N)ncnc21 | Not Active | soluble | Not Active | ≥ 1000 | – | IC50 (Plasmodium falciparum [5]): < 31 µM
9 | CCn1cc(-c2ccc(OC)cc2)c2c(N)ncnc21 | Not Active | soluble | Not Active | ≥ 1000 | Active | –
10 | CN(C)c1ncnc2c1c(-c1ccc(Oc3ccccc3)cc1)cn2C1CCCC1 | Active | soluble | Not Active | ≥ 1000 | – | IC50 (Plasmodium falciparum [6]): 6 µM; IC50 (Plasmodium falciparum [5]): > 1000 µM
11 | Cn1cc(-c2ccccc2)c2c(N)ncnc21 | Not Active | soluble | Not Active | ≥ 1000 | Active | –
12 | Clc1[nH]cnc2nccc1-2 | – | – | – | – | – | Activity [11]: inactive
13 | Clc1ncnc2c1c(Br)cn2C1CCCC1 | – | – | – | – | – | Activity [11]: inactive
14 | Cn1cc(-c2ccccc2F)c2c(N)ncnc21 | Not Active | soluble | Not Active | ≥ 1000 | Active | –
15 | Clc1cccc(C(c2ccc3[nH]cnc3c2)n2ccnc2)c1 (stereo unspecified) [LIAROZOLE HYDROCHLORIDE] | – | – | – | – | – | IC50 [12]: 29 µM
16 | CN(C)CCCN1c2ccccc2C(C)(C)c2ccccc21 [DIMETACRINE] | – | – | – | – | – | IC50 [12]: 28 µM
17 | COc1ccc(-c2cn(C)c3ncnc(N)c23)cc1 | Not Active | soluble | Not Active | ≥ 1000 | Active | –
18 | Cn1cc(-c2ccncc2)c2c(N)ncnc21 | Not Active | soluble | Not Active | ≥ 1000 | Active | –
